According to patent US11083795B2, “Amorphous metal-organic frameworks” (Cambridge Enterprise Limited, priority 2015, dated 2021):

Experiments:
[1] = tested on: HeLa cells; assay: Drug cellular uptake by confocal microscopy; format: cell-based; conditions: 24 h incubation; frameworks 0.5 mg/mL, free calcein 0.075 mg/mL
Description: HeLa cells were seeded in a NUNC™ imaging four-well plate at a density of 1.11×10^5 cell/mL and incubated for 24 h at 37° C. with 5% CO2 in DMEM supplemented with 10% (v/v) Fetal Bovine Serum (FBS), 2 mM L-glutamine, 100 units/mL penicillin and 100 μg/mL streptomycin.
The cells were washed twice with PBS and incubated together with calcein-loaded crystalline Zr-containing metal-organic frameworks (0.5 mg/mL) for 24 h. The amorphous frameworks were obtained by mechanical amorphization of calcein-loaded crystalline Zr-containing metal-organic frameworks. The metal-organic frameworks were well-dispersed in culture media before they were added to the cells.
Untreated cell and free calcein (at a concentration of 0.075 mg/mL) were included as controls.
After incubation for 24 h, the cells were washed several times to remove the non-internalized particles. Cells then were incubated for 15 min with Hoechst 33342 (H33342) and 1× of CellMask™ Orange to stain the nucleus and cell membrane, respectively (each dye provided at a concentration of 5 μg/mL). The cells were then washed extensively to remove the dyes and fresh media (without phenol red) was added to each sample. Finally, the plate was placed on a Leica TCS SP5 confocal microscope for imaging. The microscope was equipped with 405 diode, argon and HeNe lasers. Leica LAS AF software was used to analyse the images.

[2] = tested on: rat; design: lethal dose LD50: unit not given here; conditions: cited from earlier work

SMILES | calcein signal in HeLa cells by confocal microscopy [1] | lethal dose LD50 ([2]; in rats) | oral lethal dose, LD50 ([2]; oral, rat model)
O=C(O)CN(CC(=O)O)Cc1cc2c(cc1O)Oc1cc(O)c(CN(CC(=O)O)CC(=O)O)cc1C21OC(=O)c2ccccc21 [calcein] | stained weakly in the form of bright vesicles |  | 
CC(=O)[O-].CC(=O)[O-].[O-2].[Zr+4] [zirconyl acetate] |  | ~4.1 | around 4.1 g/kg
